Literature values, collected in patent US20130122120A1, “INSECTICIDAL COMPOSITIONS AND METHODS” (priority 2011, published 2013).

What was measured:
aphids = details: nymphs and adults
[1] = applied directly to skin or consumed

**Q.** With `CCCCCCCCCCCCOS(=O)(=O)[O-].[Na+]` [Sodium lauryl sulfate, Sodium dodecyl sulfate] as the compound, how does the efficacy against aphids (aphids) read?
**A.** some limited efficacy for treating aphids, killing the nymphs, but merely delays death in adults

**Q.** And the aggregation number (at the CMC)?
**A.** about 62

**Q.** And the “critical micelle concentration (CMC)” value (pure water at 25° C.)?
**A.** 8.2 mM

**Q.** And the carcinogenicity [1]?
**A.** not carcinogenic

**Q.** And the “Ames (bacterial mutation) test result” value (bacterial mutation)?
**A.** negative
